Patent US20050075371A1, “Methods and compositions for the oral administration of prodrugs of proton pump inhibitors” (ALLERGAN, INC., priority 2003, published 2005)
≈ marks a conversion by molar mass, not a printed value. Where two headings read alike, the source gives them in different places.

Key:
[1] = Systemic half-life after oral or intravenous administration in dogs; format: in vivo, dogs (beagle); details: for half-life: beagle, dog, blood
Procedure: (§1) Blood concentrations of the compounds omeprazole, lansoprazole, pantoprazole, rabeprazole, and test compounds were quantified using an achiral liquid chromatography tandem mass spectrometry method (LC-MS/MS). Systemic pharmacokinetic parameters were determined for omeprazole or lansoprazole using non-compartmental analysis in Watson® version 6.3, available from InnaPhase Corporation, Philadelphia, Pa.

[2] = Systemic half-life after oral or intravenous administration in rats; format: in vivo, rats (Sprague-Dawley); details: for Systemic omeprazole half-life / half-life: rats; for half-life: Sprague-Dawley, rat, blood
Procedure: as §1

[3] = Systemic omeprazole after enteric-coated or regular capsules in monkeys; format: in vivo; details: Monkey, oral capsule of sodium salt of compound 1
Procedure: (§2) The bioavailability of compound 1 in enterically coated and non enterically coated dosage forms was investigated for dogs and monkeys. Regular and enteric-coated size 3 HPMC capsules (Capsugel, Morris Plains, N.J.) containing compound 1 were prepared by placing the appropriate amount of the sodium salt of compound 1 in the capsule. The enteric-coating material was prepared by dissolving cellulose acetate phthalate in a mixture of isopropyl alcohol and dichloromethane. The entire capsule was dipped in the enteric-coating material, and the isopropyl alcohol and dichloromethane were allowed to evaporate. The dosage forms were administered to the animals and the concentration of the omeprazole in the blood was determined as described in the oral bioavailability determination of Example 2. The maximum concentration of omeprazole (Cmax) and the total area under the curve (AUC) for the animals receiving both enterically coated and non-enterically coated oral dosage forms is presented in Table 4B. In both dogs and monkeys, both the Cmax and the AUC are higher for the non-enterically coated dosage form.

[4] = Systemic omeprazole after enteric-coated or regular capsules in dogs; format: in vivo; details: Dog, oral capsule of sodium salt of compound 1
Procedure: as §2

[5] = Stability profile in buffered aqueous solutions; format: physicochemical; details: 25° C.
[6] = Solubility profile in buffered aqueous solutions; format: physicochemical; details: 25° C.
Description: While not intending to be bound in any way by theory, it is believed that this improvement in solubility is due to the deprotonation of a sufficient quantity of the acid.

[7] = tested on: Caco-2 cells; assay: Membrane permeability (Papp) across Caco-2 cell monolayer, apical to basolateral; format: in vitro ADME; details: Caco-2, apical to basolateral, 10 μM, 37° C.
Procedure: (§3) Determination of membrane permeability in all examples described herein was accomplished by the following procedure. This procedure is also used to determine whether a given prodrug falls within the scope of those claims given herein which relate to membrane permeability.
(§4) Caco-2 cells were seeded on Costar™ 12 mm diameter, 0.4 μm pore size transwell filters, and were cultured at 37° C., 5% CO2 in a humidified tissue culture chamber.
(§5) DMEM was equilibrated as a transport buffer in 37° C. water bath an hour before experiment. The cells were then equilibrated in transport buffer for 1 hr at 37° C.
(§6) Dosing solution (10 μM) was prepared by adding a 20 μL aliquot of a 10 mM stock solution of the prodrug to 20 mL of transport buffer.
(§7) Transport across Caco-2 cell monolayer was measured at 37° C., in the apical to basolateral direction (n=3).
(§8) Transport buffer was removed from both apical and basolateral compartment of filters. Dosing solution (0.2 mL) was added to the apical compartment of the cell layers on transwell filters, and 0.8 ml fresh pre-warmed transport buffer was added to basolateral compartment. Timing was started for transport, and at 5, 20, and 60 min after transport started, sample fluid (400 μL) was collected from the basolateral compartment. Fresh transport buffer (400 μL) was added back to the basolateral compartment, and the fluid was thoroughly mixed.
(§9) Transport samples, dosing solution, and standards(100 μL) each were mixed with 100 μl of a 500 ng/ml internal standard (Lansoprazole-D) for LC-MS/MS analysis, and part of each sample (100 μL) was vortexed and transferred into glass LC-MS/MS vials for analysis.
(§10) The apparent permeability coefficient (Papp, cm/sec), otherwise known herein as the membrane permeability, is determined from the following relationship: Papp=J/(ACo) where J (pmol/min) is the transport rate, meaning the rate of prodrug movement through the cell layer, A (cm^2) is the filter surface area, and Co (μM) is the initial dosing concentration.
(§11) The transport rate J, is calculated as the slope of the linear regression fit for the transport amount over time data using Microsoft Excel® 97 SR-2 (Microsoft Corp. Redmond, Wash.).
(§12) Lucifer yellow (LY) was used as a paracellular permeability reference standard to determine integrity of cell layers used in the experiments. LY transport in the apical to basolateral direction was carried out in the same manner as described above. Fluorescence level in basolateral fluid sampled at 5, 20, and 60 min post dose was determined using Fluostar Galaxy (BMG Labtechnologies, Durham, N.C.) at excitation/emission wavelengths of 485/520 nm. A standard curve covering the range from 0.002 to 0.5 mg/mL is constructed to quantify the amount of LY in the transport sample to calculate permeability coefficient (Papp).

[8] = Oral administration of solid dosage form to a person suffering from heartburn; format: in vivo; details: 40 mg compound 1, 50% as sodium salt, oral daily
Procedure: A solid dosage form comprising 40 mg of compound 1, having 50% of the prodrug in the form of the sodium salt, is orally administered daily to a person suffering from heartburn. Relief of pain begins to occur within about 1 day, and continues as long as the person takes the dosage form.

[9] = Degradation in simulated gastric fluid; format: physicochemical; details: simulated gastric fluid (USP, pepsin); pH 1.2
Procedure: Simulated gastric fluid was prepared as specified by USP (http://www.uspnf.com/uspnf/usp26nf21/default.htm, Reagents>Solutions>Test Solutions>Gastric Fluid, Simulated). To make 200 mL of simulated gastric fluid, 0.4 g of sodium chloride and 0.64 g of purified pepsin, with an activity of 800 to 2500 units per mg of protein, was dissolved in 1.4 mL of hydrochloric acid and sufficient water. The solution was adjusted to the appropriate pH with hydrochloric acid.
The pH dependence of the half-life of compound 1 in the simulated gastric fluid is depicted in Table 4A.

[10] = Hygroscopicity on storage; format: physicochemical; details: 14 days of storage at 25° C. at 75% relative humidity
Procedure: The physicochemical properties of compound 1 were analyzed.

[11] = somewhat buffer dependent, Kromer et al., Ekpe et al., cited from earlier work
[12] = Membrane permeability (Papp) across Caco-2 cell monolayer, apical to basolateral; format: in vitro ADME; details: human, Caco-2, apical to basolateral, 37° C.
Procedure: as §3, §4, §5, §6, §7, §8, §9, §10, §11, §12

[13] = intravenous, equivalent omeprazole dose 1 mg/kg
[14] = oral, equivalent omeprazole dose 10 mg/kg
[15] = pH 3, Citric Acid (0.1 M)/Na2HPO4 (0.2 M)
[16] = pH 5, Citric Acid (0.1 M)/Na2HPO4 (0.2 M)
[17] = pH 7, sodium phosphate (0.1-0.2 M)
[18] = pH 7.4, sodium phosphate (0.1-0.2 M)
[19] = pH 9, sodium phosphate (0.1-0.2 M)
[20] = pH 10, sodium phosphate (0.1-0.2 M)
[21] = po, Table 2D, read-out: t1/2 (systemic half-life in dogs after oral administration) (converted)
[22] = po, oral solution, systemic half-life of the proton pump inhibitor, unit inferred, read-out: Dog T1/2 PPI (converted)
[23] = oral solution, systemic half-life of the proton pump inhibitor, unit inferred, read-out: Rat T1/2 PPI (converted)

COc1ccc2c(c1)nc([S+]([O-])Cc1ncc(C)c(OC)c1C)n2S(=O)(=O)c1ccc(OCC(=O)O)cc1 (centres unmarked) [Compound 1]
Systemic omeprazole half-life [1, 13]: 60 min | Dog T1/2 PPI ([1]; oral solution, systemic half-life of the proton pump inhibitor, unit inferred): 125 min | t1/2 (systemic half-life in dogs after oral administration) ([1]; oral, Table 2D): 144 min | Systemic omeprazole half-life [1, 14]: 144 min | Prodrug in the bloodstream 5 minutes after intravenous administration ([2]; rats (Table 2A study), intravenous, 5 minutes): not detected | Systemic omeprazole half-life [2, 13]: 10.8 min | Systemic omeprazole half-life [2, 14]: 102 min | AUC Omeprazole/Dose ([3]; Enteric Coating): 18.9 ± 7.9 ng·h/mL/mg/kg | Cmax Omeprazole/Dose ([3]; Enteric Coating): 6.09 ± 1.04 ng/mL/mg/kg | AUC Omeprazole/Dose ([3]; Regular Capsule): 19.7 ± 8.8 ng·h/mL/mg/kg | Cmax Omeprazole/Dose ([3]; Regular Capsule): 14.0 ± 17.1 ng/mL/mg/kg | AUC Omeprazole/Dose ([4]; Enteric Coating): 82.2 ± 18.4 ng·h/mL/mg/kg | Cmax Omeprazole/Dose ([4]; Enteric Coating): 22.5 ± 7.3 ng/mL/mg/kg | AUC Omeprazole/Dose ([4]; Regular Capsule): 91.3 ± 32.9 ng·h/mL/mg/kg | Cmax Omeprazole/Dose ([4]; Regular Capsule): 29.2 ± 11.8 ng/mL/mg/kg | Degradation Rate Constant (k) ([5]; pH 1, 0.1 M HCl): 0.194 h⁻¹ | Half-life (t1/2) ([5]; pH 1, 0.1 M HCl): 3.6 h | Shelf life (t90%) ([5]; pH 1, 0.1 M HCl): 0.5 h | Degradation Rate Constant (k) [5, 15]: 0.009 h⁻¹ | Half-life (t1/2) [5, 15]: 78.0 h | Shelf life (t90%) [5, 15]: 11.9 h | Degradation Rate Constant (k) [5, 16]: 0.008 h⁻¹ | Half-life (t1/2) [5, 16]: 89.2 h | Shelf life (t90%) [5, 16]: 13.6 h | Degradation Rate Constant (k) [5, 17]: 0.002 h⁻¹ | Half-life (t1/2) [5, 17]: 286.8 h | Shelf life (t90%) [5, 17]: 43.6 h | Degradation Rate Constant (k) [5, 18]: 0.002 h⁻¹ | Half-life (t1/2) [5, 18]: 291.2 h | Shelf life (t90%) [5, 18]: 44.3 h | Degradation Rate Constant (k) [5, 19]: 0.030 h⁻¹ | Half-life (t1/2) [5, 19]: 23.0 h | Shelf life (t90%) [5, 19]: 3.5 h | Degradation Rate Constant (k) [5, 20]: 0.298 h⁻¹ | Half-life (t1/2) [5, 20]: 2.3 h | Shelf life (t90%) [5, 20]: 0.4 h | Solubility ([6]; pH 1, 0.1 M HCl): 1.8 mg/mL (≈ 3.22 mM) | Solubility [6, 15]: 0.4 mg/mL (≈ 0.715 mM) | Solubility [6, 16]: >50 mg/mL | Solubility [6, 17]: >50 mg/mL | Solubility [6, 19]: >50 mg/mL | Permeability [7]: 0.12 ×10⁻⁶ cm/s | Relief of pain begins to occur [8]: ≤ 1 days | Half-life in Simulated Gastric Fluid [9]: 180 min | weight gain [10]: 9%

COc1ccc2[nH]c([S+]([O-])Cc3ncc(C)c(OC)c3C)nc2c1 (centres unmarked) [Omeprazole, reference compound]
half-life ([1]; iv, 1 mg/kg, intravenous, equivalent omeprazole dose 1 mg/kg, read-out: Systemic omeprazole half-life (converted)): 36 min | half-life ([1]; po, 10 mg/kg, oral, equivalent omeprazole dose 10 mg/kg, read-out: Systemic omeprazole half-life (converted)): 42 min | half-life [1, 21]: 42 min | half-life [1, 22]: 41.8 min | half-life ([2]; intravenous, equivalent omeprazole dose 1 mg/kg, read-out: Systemic omeprazole half-life (converted)): 9 min | half-life [2, 23]: 18.5 min | half-life ([2]; oral, equivalent omeprazole dose 10 mg/kg, read-out: Systemic omeprazole half-life (converted)): 18.6 min | typical half-life (aqueous stability) ([11]; pH 5): about 1 hour | typical half-life (aqueous stability) ([11]; pH 7): about 40 hours | Papp A→B at 60 min, 10 μM [12]: 13 ×10⁻⁶ cm/s

Cc1c(OCC(F)(F)F)ccnc1C[S+]([O-])c1nc2ccccc2[nH]1 (centres unmarked) [Lansoprazole, reference compound]
half-life [1, 21]: 34.2 min | half-life [1, 22]: 34.4 min | half-life [2, 23]: 30.6 min | Papp A→B at 60 min, 10 μM [12]: 15 ×10⁻⁶ cm/s
